The source of these data is patent US9278071B2, “Organic compound nano-powder, method for producing the same and suspension” (Activus Pharma Co., Ltd., priority 2012, dated 2016).

One series can be described thus: Particle diameter distribution by dynamic light scattering photon correlation method (Delsa Nano). Conditions: starting organic compound powder before mixing/milling. In kind it is physicochemical. An excerpt:
The term “average particle diameter” used in present specification means a mathematical average diameter (here, defined as the Dav value) in the particle diameter distribution as measured by a dynamic light scattering photon correlation method. The term “50%-diameter” (defined as median diameter or the D50 value) means a certain particle diameter when amount of a larger side becomes equal to amount of a smaller side of the particle diameters divided into two a powder from the certain particle diameter. The term “90%-diameter” (D90 value) means the particle diameter of the particle at the position of 90% when counted from the smallest size zero (minimum) to 100% (maximum) of the particle diameter in the particle diameter distribution as measured by the above-mentioned measurement method. The term “10%-diameter” (D10 value) means the particle diameter of the particle at the position of 10% when counted from the smallest size zero (minimum) to 100% (maximum) of the particle diameter in the particle diameter distribution as measured by the above-mentioned measurement method. […]
For the compound `CC[C@H]1OC(=O)[C@H](C)[C@@H](O[C@H]2C[C@@](C)(OC)[C@@H](O)[C@H](C)O2)[C@H](C)[C@@H](O[C@@H]2O[C@H](C)C[C@H](N(C)C)[C@H]2O)[C@](C)(OC)C[C@@H](C)C(=O)[C@H](C)[C@@H](O)[C@]1(C)O` [clarithromycin powder, clarithromycin], the “Particle diameter distribution, D10, before milling” value (“Particle diameter distribution, D10” below) was 2277 nm; the “Particle diameter distribution, D50, before milling” value (shortened to “Particle diameter distribution, D50”) came out at 6872 nm; the “Particle diameter distribution, D90, before milling” value (“Particle diameter distribution, D90” for short) was 22850 nm; the “Particle diameter distribution, Dav (average particle diameter), before milling” value (“Particle diameter distribution, Dav” below) turned out to be 10160 nm.

With `CC(=O)[C@@]1(O)CC[C@H]2[C@@H]3C[C@H](C)C4=CC(=O)C=C[C@]4(C)[C@@]3(F)[C@@H](O)C[C@@]21C` [fluorometholone powder, fluorometholone], the “Particle diameter distribution, D10” value turned out to be 1389 nm; the “Particle diameter distribution, D50” value amounted to 2636 nm; the “Particle diameter distribution, D90” value is listed as 5709 nm; the “Particle diameter distribution, Dav” value was determined as 3148 nm.

As to `COc1cc(/C=C/C(=O)CC(=O)/C=C/c2ccc(O)c(OC)c2)ccc1O` [synthetic curcumin powder, curcumin], the “Particle diameter distribution, D10” value stood at 4422 nm; the “Particle diameter distribution, D50” value amounted to 15070 nm; the “Particle diameter distribution, D90” value is recorded as 33850 nm; the “Particle diameter distribution, Dav” value stood at 17270 nm.

The next series in a line: Particle size of the granular carbohydrate compounds used. In kind it is physicochemical. Conditions: granular carbohydrate compound as used. The source says: The term “Dav” means an average particle diameter (Dav). In the table, the term “D10” means the particle diameter (D10 value) of the particle at the position of 10% when counted from the smallest size zero (minimum) to 100% (maximum) of the particle diameter in a particle diameter distribution. The term “D50” means a certain particle diameter (D50 value) when amount of a larger side becomes equal to amount of a smaller side of the particle diameters divided into two a powder from the certain particle diameter. The term “D90” means the particle diameter (D90 value) of the particle at the position of 90% when counted from the smallest size zero (minimum) to 100% (maximum) of the particle diameter in the particle diameter distribution. The same definitions shall apply to following tables.
Consider `O=C[C@H](O)[C@@H](O)[C@H](O[C@@H]1O[C@H](CO)[C@@H](O)[C@H](O)[C@H]1O)[C@H](O)CO` [Cellobiose, cellobiose], for which the “Particle Size D10” value was determined as 7 μm, the “Particle Size D50” value came out at 38 μm, the “Particle Size D90” value turned out to be 76 μm and the “Particle Size Dav” value was found to be 41 μm.

As to `OC[C@@H](O)[C@@H](O)CO` [Erythritol, erythritol], the “Particle Size D10” value stood at 63 μm, the “Particle Size D50” value was 138 μm, the “Particle Size D90” value is 237 μm and the “Particle Size Dav” value was found to be 147 μm.

On to `O=C(CO)[C@@H](O)[C@H](O)[C@H](O)CO` [Fructose, fructose], for which the “Particle Size D10” value was found to be 158 μm, the “Particle Size D50” value turned out to be 311 μm, the “Particle Size D90” value stood at 566 μm and the “Particle Size Dav” value amounted to 339 μm.

With `O[C@H]1[C@H](O)[C@@H](O)[C@H](O)[C@@H](O)[C@H]1O` [Inositol, inositol], the “Particle Size D10” value is recorded as 116 μm, the “Particle Size D50” value was found to be 247 μm, the “Particle Size D90” value stood at 496 μm and the “Particle Size Dav” value stood at 280 μm.

`O.OC[C@H]1O[C@@H](O[C@H]2[C@H](O)[C@@H](O)C(O)O[C@@H]2CO)[C@H](O)[C@@H](O)[C@H]1O` (stereo partly shown) [Lactose monohydrate, lactose monohydrate]: the “Particle Size D10” value was found to be 3 μm, the “Particle Size D50” value was determined as 20 μm and the “Particle Size Dav” value turned out to be 45 μm.

As to `OC[C@@H](O)[C@@H](O[C@H]1O[C@H](CO)[C@@H](O)[C@H](O)[C@H]1O)[C@H](O)[C@@H](O)CO` [Maltitol, maltitol], the “Particle Size D10” value amounted to 7 μm, the “Particle Size D50” value is given as 30 μm, the “Particle Size D90” value stood at 64 μm and the “Particle Size Dav” value is 33 μm.

Turning to `OC[C@@H](O)[C@@H](O)[C@H](O)[C@H](O)CO` [Mannitol, D-(−)-mannitol], the “Particle Size D10” value turned out to be 24 μm, the “Particle Size D50” value was 66 μm, the “Particle Size D90” value worked out at 144 μm and the “Particle Size Dav” value amounted to 79 μm.

For the compound `OC[C@@H](O)[C@@H](O)[C@H](O)[C@@H](O)CO` [Sorbitol, sorbitol], the “Particle Size D10” value is reported as 75 μm, the “Particle Size D50” value was 154 μm, the “Particle Size D90” value came to 249 μm and the “Particle Size Dav” value was determined as 159 μm.

In the case of `OC[C@H]1O[C@H](O[C@H]2O[C@H](CO)[C@@H](O)[C@H](O)[C@H]2O)[C@H](O)[C@@H](O)[C@@H]1O` [Trehalose, trehalose], the “Particle Size D10” value was determined as 7 μm, the “Particle Size D50” value was found to be 20 μm, the “Particle Size D90” value was determined as 50 μm and the “Particle Size Dav” value was 25 μm.

On to `OC[C@@H](O)[C@H](O)[C@@H](O)CO` [Xylitol, xylitol], for which the “Particle Size D10” value is 383 μm, the “Particle Size D50” value amounted to 615 μm, the “Particle Size D90” value was found to be 912 μm and the “Particle Size Dav” value came out at 631 μm.

As for dextrin, the “Particle Size D10” value is listed as 16 μm, the “Particle Size D50” value amounted to 38 μm, the “Particle Size D90” value was found to be 63 μm and the “Particle Size Dav” value was 38 μm.
